Consider one compound from patent US12419890B2, “Administration of sumo-activating enzyme inhibitor and checkpoint inhibitors” (Takeda Pharmaceutical Company Limited, priority 2019, dated 2025).

The subject of the test is WEHI-3 syngeneic mouse myelomonocytic leukemia-derived subcutaneous tumor. Briefly: WEHI-3 Study 4: mouse WEHI-3 syngeneic tumor model, individual tumor volume. Conditions: Compound I-263a 7.5 mg/kg IV BIWx3. The class given is in vivo. The method, then: WEHI-3 Study 4: WEHI-3 is a mouse myelomonocytic leukemia cell line. WEHI-3 mouse syngeneic tumor model was generated by subcutaneous inoculation with 0.1×10^6 WEHI-3 cells (cell suspension) in 13 weeks old female BALB/c mice (Jackson Laboratory, 600 Main St, Bar Harbor, ME) in the flank. When the mean tumor volume reached approximately 50 mm^3, the animals were randomized into one vehicle control and five treatment groups (n=8/group). Mice were then dosed with 20% HPbCD or Compound I-263a or anti-mouse PD-1 antibody or anti-mouse CTLA-4 antibody over a 21-day period. Tumor growth and body weight were measured twice per week during the treatment and post-treatment periods, and mice were humanely euthanized once they had reached their humane endpoint.
Study 4: A 1.01 mg/mL stock solution of Compound I-263a was formulated weekly in 20% HPβCD and administered intravenously (IV) based on exact animal body weight on each day of treatment, using a dosing volume of 10 mL/kg body weight. Final doses received were 7.5 mg/kg. Dosing volume for Compound I-263a was 0.2 mL. […]
Tumors were measured twice weekly using vernier calipers. Tumor volumes were calculated using standard equation: V=W^2×L/2, where V=volume, W=width, and L=length for the tumor. […] Tumor size and body weight were measured twice a week for the duration of the study. […]

Take `Cc1sc(C(=O)c2cncnc2N[C@@H]2C[C@H](COS(N)(=O)=O)[C@@H](O)C2)cc1[C@@H]1NCCc2ccc(Cl)cc21` [Compound I-263a, [(1R,2S,4R)-4-{[5-({4-[(1R)-7-chloro-1,2,3,4-tetrahydroisoquinolin-1-yl]-5-methyl-2-thienyl}carbonyl)pyrimidin-4-yl]amino}-2-hydroxycyclopentyl]methyl sulfamate]: the “effect on tumor growth” value (8 tumors/group) is recorded as “very little effect”. For the same compound, where the note is “delay to day 14, out of 8 implanted tumors”, the “slight tumor growth delays” value amounted to 2.
